Patent US20220409548A1, “AMORPHOUS SOLID DISPERSION OF PYRAZOLE-AMIDE COMPOUND” (JAPAN TOBACCO INC., priority 2019, published 2022)

What was measured:
[1] = Precipitation test in acidic media (pH 1.2); type: physicochemical; conditions: ethanol solution 100 mg/mL into JP 1st fluid pH 1.2, 450 mL; addition of copolyvidone, methylcellulose or hypromellose (0.01 g) vs HPMCAS, polyvinyl alcohol or no polymer; FIG. 3
Description: The dissolution test was performed using a dissolution tester (trade name: NTR-VS6P, manufactured by Toyama Sangyo Co., Ltd.) that conforms to the Japanese Pharmacopoeia Dissolution Test Method 2 (Paddle Method), at paddle rotating speed 75 rpm, test media amount 450 mL. An amount equivalent to 100 mg of the compound of the formula [I] was added to the test media, and the dissolved amount of the compound of the formula [I] was measured at each sampling point with a spectrophotometer (UV-1600, manufactured by Shimadzu Corporation).
The precipitation behavior of the compound of the formula [I], dissolved in ethanol (concentration: 100 mg/mL), in the following 6 types of test medium was evaluated by the same test method as in Experimental Example 1. […]

[2] = test system: pyruvate dehydrogenase kinase (PDHK); conditions: described in patent document 1 (WO 2014/142290); cited from earlier work

## CC(C)(O)CCOc1cc(-c2cnn(C(C)(C)C(N)=O)c2)c2c(c1)[C@@](O)(C(F)(F)F)c1ccccc1-2 [compound of the formula [I], 2-{4-[(9R)-9-hydroxy-2-(3-hydroxy-3-methylbutyloxy)-9-(trifluoromethyl)-9H-fluoren-4-yl]-1H-pyrazol-1-yl}-2-methylpropanamide]
[1]
  precipitation behavior in pH 1.2 test media: significantly suppressed the precipitation
[2]
  pyruvate dehydrogenase kinase (PDHK) inhibitory activity: have a pyruvate dehydrogenase kinase (PDHK) inhibitory activity
